Results: paper PMC2994686, “The Function and Three-Dimensional Structure of a Thromboxane A2/Cysteinyl Leukotriene-Binding Protein from the Saliva of a Mosquito Vector of the Malaria Parasite” (PLoS Biology, 2010)
Entries after “also recorded” stand apart in the source; their conditions may differ. Read-outs that look alike come from different tables or passages of the source.

Tests used:
AnSt-D7L1 [1] = molecular target: T1, AnSt-D7L1 (Anopheles stephensi, UniProt Q95NY5); settings: for binding to AnSt-D7L1 by ITC (in words): ITC screen of candidate ligands, partly unpublished data; for Kd: read-out: dissociation constant (Kd), ITC, 35°C, 40 µM ligand in syringe, 4 µM AnSt-D7L1 in cell, single binding site model
Experimental: (§1) Binding experiments were performed on a MicroCal VP-ITC instrument. For CysLT experiments the syringe contained a 20 µM ligand solution, and the AnSt-D7L1 concentration in the cell was 2 µM. For the TXA2 analog experiments the ligand solution used to fill the syringe was 40 µM and the AnSt-D7L1 concentration in the cell was 4 µM. Assays were performed at 35°C with successive 10 µL injections.
(§2) Binding experiments were performed on a MicroCal VP-ITC instrument. For these experiments, the ligand solution used to fill the syringe was 80 µM and AnSt-D7L1 concentration in the calorimeter cell was 8 µM. Assays were performed at 35°C with successive 10 µL injections.
(§3) AnSt-D7L1 was prepared for ITC experiments by dialysis against 20 mM Tris-HCl 0.15 M NaCl pH 7.4 for 1 h. Binding experiments were performed on a MicroCal VP-ITC instrument. Aliquots of lipid stock solutions in ethanol or methyl acetate were dried under a stream of nitrogen in a glass vial, then dissolved in 20 mM Tris HCl, 0.15 M NaCl pH 7.4, vortexed, and sonicated for 8 min. Non-lipidic ligands were dissolved in 20 mM Tris HCl, 0.15 M NaCl pH 7.4. All solutions were degassed prior to use. Assays were performed at 35°C with successive 10 µL injections, with a spacing interval of 180 s and a syringe stirring speed of 290 rpm. In all the cases, after subtraction of the heats of dilution, the measured heats were converted to enthalpies and analyzed by fitting to a single-site binding model using the Microcal Origin software.

AnSt-D7L1 [2] = molecular target: T1, AnSt-D7L1; experiment: biochemical
Experimental: as §1, §2, §3

[3] = tested on: Human platelet-rich plasma; experiment: Platelet aggregation assay in an aggregometer; type: cell-based; settings: for effect on U46619-induced platelet aggregation / effect on U46619-induced platelet shape change: 1.3 µM U46619; for effect on U46619-induced platelet shape change: AnSt-D7L1 2 and 3 µM, SQ 29,548 1 µM without protein; for effect on collagen-induced platelet aggregation (comparison with TXA2 antagonists): 3 µM AnSt-D7L1, SQ 29,548, or indomethacin pre-treatment
Experimental: Figure 5 Effect of AnSt-D7L1 on platelet aggregation promoted by different agonists. Platelet-rich human plasma was incubated with different concentrations of AnSt-D7L1 for 1 min prior to the addition of agonists as indicated. Aggregation was measured at 37°C on an aggregometer. Unless otherwise stated protein concentration (µM) is shown under respective curves. (A) Concentration dependence of AnSt-D7L1 inhibition of collagen-mediated platelet aggregation at low concentration of collagen. (B) Lack of inhibition of collagen-mediated platelet aggregation by AnSt-D7L1 at high concentration of collagen. (C) Lack of inhibition of convulxin-mediated platelet aggregation by AnSt-D7L1. (D) ADP-mediated platelet aggregation in the absence of any protein (control), in the presence of 3 µM AnSt-D7L1, or in the presence of 3 µM RPAI1, which is known to bind ADP. (E) Lack of effect of AnSt-D7L1 on PMA-induced platelet aggregation. (F) Lack of effect of AnSt-D7L1 on ristocetin-induced platelet aggregation.
Figure 6 AnSt-D7L1 affects platelet aggregation promoted by TXA2. Platelet-rich human plasma was incubated with different concentrations of AnSt-D7L1 or buffer, as indicated, for 1 min prior to the addition of agonists indicated in each panel. (A) Aggregation mediated by collagen in the presence of TXA2 antagonists. The effect of 3 µM AnSt-D7L1 on collagen-induced aggregation was similar to the effect promoted by a thromboxane receptor (TP) antagonist (SQ 29,548) or by pre-incubating platelets with indomethacin, a general cyclooxygenase inhibitor. […] (B) AnSt-D7L1 has a dose dependent effect on U46619-induced platelet aggregation. Protein concentrations are shown on the bottom of each curve. […] (C) AnSt-D7L1 (3 µM) affects AA-induced platelet aggregation. […] Respective treatments are indicated in the bottom of each curve.
Platelets were prepared as described previously. Human platelet-rich plasma (∼2×10^5/µL final density) and Tyrode-BSA buffer in the presence or absence of AnSt-D7L1 (final volume 300 µL) were placed in an aggregometer and stirred at 1,200 rpm at 37°C for 1 min prior to the addition of different agonists. In experiments using the human TP (TXA2 receptor) antagonist SQ 29,548 or made in the presence of proteins (AnSt-D7L1 or RPAI-1), those compounds were added to the platelet suspension and Tyrode mix prior to addition of agonists. In experiments in which indomethacin, a general cycloxygenase inhibitor, was used, platelets were pre-incubated with the compound for 5 min prior to addition of agonists.

rat aorta = experiment: Smooth muscle bioassay: U46619-induced contraction of rat aorta
Experimental: Figure 4 Smooth muscle contraction bioassay.
Tissue preparations were bathed in modified Tyrode solution (with 10 mM HEPES buffer, pH 7.4) during the course of the experiment, and the solutions were kept oxygenated by bubbling air into the bath.

AnSt-D7L1 [4] = molecular target: T1, AnSt-D7L1; experiment: Incubation of LTC4 with AnSt-D7L1, gel filtration, HPLC and mass spectrometry (test for hydrolytic or enzymatic function); parameters: made in house; settings: incubated at 25°C; mass spectrum of bound versus free ligand
Experimental: Fractions containing the complex were then applied to a C18 HPLC column, eluted with methanol, and analyzed by mass spectrometry.
(B) LTC4 was injected alone in order to obtain a retention volume measurement for the free ligand. In both cases, the column was eluted with 100 mM ammonium acetate pH 7.2 at a flow rate of 60 µL per min. (0.39 MB TIF) Click here for additional data file.
Supplementary file pbio.1000547.s003.tif: Figure S3 Mass spectral analysis of the AnSt-D7L1-LTC4 complex after gel filtration chromatography. Top: The peak fraction from the gel filtration of Figure S2 (3 µl) was applied to a C18 column and eluted with 5% methanol 0.1% acetic acid for 10 min, then 5%–95% methanol 0.1% acetic acid (0.3 mm diameter column in 20 min at 3 µl/min). The eluent was analyzed directly by MS/MS. […] The inset is a sample collision-induced dissociation spectrum (35% intensity) recorded at 61–65 min. (2.15 MB TIF) Click here for additional data file.

CysLT1 = molecular target: CysLT1; parameters: method as in PMID 16107763; settings: read-out: affinity of CysLT1; cited from earlier work
AeD7 = tested on: AeD7; parameters: method as in PMID 19234127; settings: cited from earlier work
TP receptor = molecular target: TP receptor; parameters: method as in PMID 18374420; settings: Gα12/13-coupled signaling; read-out: EC50 for TP-mediated shape change; cited from earlier work

T1 sequence (Q95NY5 19-315 limits assumed): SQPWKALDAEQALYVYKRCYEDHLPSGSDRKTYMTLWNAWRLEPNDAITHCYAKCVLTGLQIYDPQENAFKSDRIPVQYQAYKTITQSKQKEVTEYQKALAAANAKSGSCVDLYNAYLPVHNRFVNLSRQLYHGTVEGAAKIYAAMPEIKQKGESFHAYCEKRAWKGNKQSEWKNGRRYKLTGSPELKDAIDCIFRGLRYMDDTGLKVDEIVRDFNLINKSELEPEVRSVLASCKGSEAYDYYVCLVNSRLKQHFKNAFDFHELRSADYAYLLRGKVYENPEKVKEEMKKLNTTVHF

CCCCC[C@H](O)/C=C/[C@H]1[C@H](O)CC(=O)[C@@H]1C/C=C\CCCC(=O)O [PGE2, prostaglandin E2]
binding to AnSt-D7L1 by ITC (in words) (AnSt-D7L1 [1]): affinities much lower than those seen with CysLTs and TXA2 analogs
Kd (AnSt-D7L1 [2]): 1.9 ± 0.2 µM

CCCCC[C@H](O)/C=C/[C@H]1C(=O)C[C@H](O)[C@@H]1C/C=C\CCCC(=O)O [PGD2]
binding to AnSt-D7L1 by ITC (in words) (AnSt-D7L1 [1]): affinities much lower than those seen with CysLTs and TXA2 analogs

platelet activating factor [PAF]
binding to AnSt-D7L1 by ITC (in words) (AnSt-D7L1 [1]): Neither showed any detectable binding

CCCCC[C@H](O)/C=C/[C@@H]1[C@@H](C/C=C\CCCC(=O)O)[C@@H](O)C[C@H]1O [PGF2α, prostaglandin F2α]
binding to AnSt-D7L1 by ITC (in words) (AnSt-D7L1 [1]): affinities much lower than those seen with CysLTs and TXA2 analogs
Kd (AnSt-D7L1 [2]): 0.671 ± 0.061 µM

CCCCCC/C=C/C1C2CC(N=N2)C1C/C=C\CCCC(=O)O (stereo not shown) [U51605]
binding to AnSt-D7L1 by ITC (in words) (AnSt-D7L1 [1]): detectable but much weaker binding than U46619

AnSt-D7L1: recombinant two-domain D7 salivary protein from An. stephensi that binds CysLTs and TXA2
effect on U46619-induced platelet aggregation ([3]; 1 µM AnSt-D7L1): dramatically inhibited aggregation
effect on U46619-induced platelet aggregation ([3]; 2 and 3 µM AnSt-D7L1): completely prevented aggregation
effect on U46619-induced platelet shape change [3]: not completely inhibited
effect on U46619-induced platelet aggregation ([3]; low AnSt-D7L1 concentrations, less than 1:1 ratio): delayed but did not prevent platelet aggregation
effect on AA-induced platelet aggregation ([3]; AA as agonist, 3 µM AnSt-D7L1, or indomethacin pre-incubation without protein): drastically decreased
inhibition of convulxin-induced platelet aggregation ([3]; GPVI agonist convulxin): inhibitory effect of AnSt-D7L1 was lost
inhibition of collagen-induced platelet aggregation ([3]; collagen at high concentration): inhibitory effect of AnSt-D7L1 was lost
effect on collagen-induced platelet aggregation (comparison with TXA2 antagonists) [3]: very similar
inhibition of collagen-induced platelet aggregation ([3]; low collagen 1.6 µg/mL, 1 µM AnSt-D7L1): almost completely inhibited
effect on the platelet response to collagen stimulation ([3]; low collagen, 0.03 µM AnSt-D7L1): sufficient to remove a significant fraction of the TXA2
effect on the platelet aggregation response to collagen ([3]; low collagen, 0.1 µM AnSt-D7L1): eliminates most of the aggregation response
inhibition of ADP-induced platelet shape change ([3]; minimal dose of ADP eliciting shape change, 3 µM protein): no inhibitory effect
effect on PMA-induced platelet aggregation ([3]; protein kinase C activator PMA): no effect
effect on ristocetin-induced platelet agglutination ([3]; ristocetin, VWF-dependent): no effect
reversal of contraction induced by U46619 (rat aorta; aorta pre-contracted with 1 µM U46619, 0.1 µM AnSt-D7L1 added after plateau): caused relaxation
effect on U46619-induced contraction of aorta (rat aorta; pre-incubation with AnSt-D7L1, 0.1 µM U46619): inhibited; also recorded: no contraction
increase of the amount of U46619 needed to promote contraction (rat aorta; pre-incubation with AnSt-D7L1, successive additions of 0.1 µM U46619): approximately 3 fold

Nc1ncnc2c1ncn2[C@@H]1O[C@H](COP(=O)(O)OP(=O)(O)O)[C@@H](O)[C@H]1O [ADP, adenosine diphosphate]
binding to AnSt-D7L1 by ITC (in words) (AnSt-D7L1 [1]): Neither showed any detectable binding

CCCCC/C=C\C\C=C/C=C/C=C/[C@@H](SC[C@H](NC(=O)CC[C@H](N)C(=O)O)C(=O)NCC(=O)O)[C@@H](O)CCCC(=O)O [LTC4, leukotriene C4]
chemical modification of bound LTC4 by AnSt-D7L1 (AnSt-D7L1 [4]): binds but does not chemically modify

COc1ccc2c(c1)c(CC(=O)O)c(C)n2C(=O)c1ccc(Cl)cc1 [indomethacin]
effect on collagen-induced platelet aggregation (comparison with TXA2 antagonists) [3]: attenuated

O=C(O)CCC/C=C\C[C@@H]1[C@H](CNNC(=O)Nc2ccccc2)[C@H]2CC[C@@H]1O2 [SQ 29,548]
effect on U46619-induced platelet shape change [3]: prevented
effect on collagen-induced platelet aggregation (comparison with TXA2 antagonists) [3]: attenuated

CNC[C@H](O)c1cccc(O)c1 [phenylephrine]
contraction of aorta after relaxation by AnSt-D7L1 (rat aorta; 3 µM phenylephrine added after relaxation): contracted normally

CCCCC/C=C\C/C=C\C/C=C\C/C=C\CCCC(=O)O [AA, arachidonic acid]
binding to AnSt-D7L1 by ITC (in words) (AnSt-D7L1 [1]): no detectable binding

CCCCC/C=C\C\C=C/C=C/C=C/[C@@H](SC[C@H](N)C(=O)O)[C@@H](O)CCCC(=O)O [LTE4, leukotriene E4]
Kd (CysLT1): ~0.1 µM

CCCCC/C=C\C[C@@H](O)/C=C/C=C/C=C\[C@@H](O)CCCC(=O)O [LTB4, leukotriene B4]
binding to AeD7 (in words) (AeD7): low affinity
binding to AnSt-D7L1 by ITC (in words) (AnSt-D7L1 [1]): did not bind

CCCCC[C@H](O)/C=C/[C@@H]1[C@@H](C/C=C\CCCC(=O)O)[C@H]2CO[C@@H]1C2 [U46619]
EC50 (TP receptor): ~0.013 µM
binding to AeD7 (in words) (AeD7): no detectable binding
Kd (AnSt-D7L1 [1]): ~0.098 µM

CCCCC[C@H](O)/C=C/[C@H]1CC2CC(C2)[C@@H]1C/C=C\CCCC(=O)O [carbocyclic TXA2]
Kd (AnSt-D7L1 [1]): ~0.038 µM

CCCCC/C=C\C\C=C/C=C/C=C/[C@@H](SC[C@H](N)C(=O)NCC(=O)O)[C@@H](O)CCCC(=O)O [LTD4, leukotriene D4]
Kd (AnSt-D7L1 [2]): 0.005 ± 0.001 µM

CCCCC[C@H](O)/C=C/[C@H]1OC(O)C[C@H](O)[C@@H]1C/C=C\CCCC(=O)O (stereo partly shown) [TXB2, thromboxane B2]
Kd (AnSt-D7L1 [2]): 1.3 ± 0.2 µM
